Measurements taken from publication PMC9145865, “Effects of Rare Phytocannabinoids on the Endocannabinoid System of Human Keratinocytes” (International Journal of Molecular Sciences, 2022).
Like-named read-outs stand apart in the source and are kept apart here.

Key:
CB2 = conditions: cited from earlier work
NAPE-PLD = experiment: Western blot protein expression of NAPE-PLD; format: cell-based, human; conditions: HaCaT cells, half-IC50 dose, 24 h, vs. control
Protocol: The HaCaT cells were seeded into 6-well plates at a density of 4 × 10^4 per well, incubated overnight and then treated with the selected pCBs (6.0 µM of CBG, 4.0 µM of CBC, 9.0 µM of THCV and 13.0 µM of CBGA) for 24 h. The cell pellets were collected and then lysed in an ice-cold lysis buffer (10 mM of EDTA, 50 mM of pH 7.4 Tris–HCl, 150 mM of sodium chloride, 1% Triton-X-100, 2 mM of phenylmethylsulfonyl fluoride, 2 mM of sodium orthovanadate, […] of leupeptin and […] of aprotinin). The amount of protein was determined using the Bio-Rad Protein assay (Bio-Rad Laboratories, Hemel Hempstead, UK). An equal amount of protein (60 µg) was loaded onto 10% sodium dodecyl sulfate–polyacrylamide gels and blotted onto polyvinylidene fluoride sheets (Amersham Biosciences, Piscataway, NJ, USA). The membranes were blocked with dried 5% non-fat milk for 1 h and then incubated with suitable primary antibodies. Detection was performed using Azure Biosystems c400 (Dublin, CA, USA). The membranes were stripped using the Restore Western Blot Stripping Buffer from Thermo Fisher Scientific (Waltham, MA, USA) for 30 min under agitation at room temperature, according to the manufacturer’s instructions. The primary antibodies (Table 6) that were used were obtained from the following sources: […]

HaCaT cells = experiment: MTT cytotoxicity assay; format: cell-based, human; conditions: for IC50: Homo sapiens, HaCaT cell viability; for relative toxicity on HaCaT cells: 6-24 h
Protocol: Immortalized HaCaT cells from the original depositor (DKFZ, Heidelberg) were purchased from CLS-Cell Lines Service (code 300493) and were of […] skin type (phototype). In all experiments, the HaCaT cells were cultured at 37 °C in a humidified 5% CO2 atmosphere in high-glucose Dulbecco’s Modified Eagle Medium (DMEM-HG), which was supplemented with 10% fetal bovine serum, and were used at the 5th–6th passage. Specific pCBs (CBG, CBC, THCV and CBGA) were used to treat the HaCaT cells at different time points (6 h, 12 h and 24 h) and at different concentrations (0.5 µM, 1.0 µM, 2.5 µM, 5.0 µM, 10 µM and 25 µM). Various doses of these pCBs were added directly to culture medium (with 1% fetal bovine serum) and the vehicles alone were added to controls, as follows: 0.8% methanol for CBG and CBC; 0.6% methanol for THCV; 0.6% acetonitrile for CBGA.
The HaCaT cells were seeded into 96-well plates at a density of 1 × 10^4 per well, incubated overnight and then treated with the selected pCBs at different concentrations (0.5 μM, 1.0 μM, 2.5 μM, 5.0 μM, 10 μM and 25 μM) for 6 h, 12 h and 24 h. Cell viability was assessed using a mitochondrial-dependent reduction of 3-[4,5-dimethylthiazol-2-yl]-2,5-diphenyl tetrazolium bromide (MTT) to purple formazan. After 4 h, the MTT solution was discarded and dimethyl sulfoxide (DMSO) was added to dissolve the formazan crystals. The cell viability was calculated by subtracting the 630 nm OD background from the 570 nm OD total signal of the cell-free blank of each sample and was expressed as percentage of the control (100%).

human TRPV1 = test system: human TRPV1; parameters: method as in PMID 21175579; conditions: over-expressed by HEK-293 cells; ref [41]; cited from earlier work
FAAH = FAAH activity assay in membranes of treated cells; format: cell-based, human; conditions: HaCaT cells, half-IC50 amount, 24 h, vs. control
Protocol: FAAH Assay: The HaCaT cells were seeded into 6-well plates at a density of 4 × 10^4 per well, incubated overnight and then treated with the selected pCBs (6.0 µM of CBG, 4.0 µM of CBC, 9.0 µM of THCV and 13.0 µM of CBGA) for 24 h. The cell pellets were collected and FAAH activity was determined using membranes that were isolated from these cells. Briefly, the membranes were incubated at pH 7.4 with 10 μM of [^3H]AEA and 50 mM of Tris–HCl, 0.05% BSA at 37 °C in water bath for 30 min. The reaction was blocked with 1 mL of chloroform–methanol (1:1 v/v) and centrifuged at 3000 rpm for 10 min at 4 °C. The aqueous (top) layer was collected and transferred into scintillation vials. The amount of [^3H]ethanolamine that was released was expressed as pmol per min per mg of protein, as reported in [67].

TRPV1 = TRPV1 calcium assay (capsaicin-triggered intracellular Ca2+ release); format: cell-based, human; conditions: HaCaT cells, half-IC50 amount, 24 h; capsaicin 1 µM; vs. control
Protocol: The effects of the pCBs on intracellular Ca^2+ release that was induced by TRPV1 activation was determined using the selective intracellular fluorescent probe Fluo-3 AM (Molecular probes, Eugene, OR, USA). The HaCaT cells (1 × 10^6 cells) were loaded for 15 min at 25 °C with 4 µM of Fluo-3 AM, which contained 0.02% Pluronic F-127 (Molecular probes) in an OPTIMEM medium, and then they were washed in the Tyrode’s buffer (145 mM of NaCl, 2.5 mM of KCl, 1.5 mM of CaCl2, 1.2 mM of MgCl2, 10 mM of D-glucose and 10 mM of HEPES; pH 7.4), resuspended in 2 mL of the Tyrode’s buffer and transferred into the quartz cuvette of the LS50B spectrofluorometer (Perkin Elmer, Waltham, MA, USA). Fluorescence was measured at 25 °C (excitation at λ = 488 nm; emission at λ = 516 nm) from the HaCaT cells, which had been pre-incubated with each pCB (6.0 µM of CBG, 4.0 of µM CBC, 9.0 µM of THCV and 13.0 µM of CBGA) and then stimulated with the selective TRPV1 agonist capsaicin (1 µM), as reported in [64]. The TRPV1-mediated intracellular Ca^2+ elevation was expressed as fluorescence intensity (arbitrary units, AU) per 10^6 cells.

Compound: CCCCCc1cc(O)c2c(c1)OC(C)(CCC=C(C)C)C=C2 (stereo not drawn) [CBC, cannabichromene]
- activity at CB2 (CB2; ref [28],[50],[51]): CB2 agonist
- NAPE-PLD protein expression (in words) (NAPE-PLD): significantly increased
- IC50 (HaCaT cells; 6 h): 15.3 µM
- IC50 (HaCaT cells; 12 h): 15.6 µM
- IC50 (HaCaT cells; 24 h): 8.2 µM
- effectiveness in human TRPV1 (human TRPV1): to a lesser extent
- activity of FAAH (FAAH): significantly increased
- TRPV1 channel stimulation (intracellular Ca2+ release triggered by capsaicin) (TRPV1): significantly increased

Compound: CCCCCc1cc(O)c(C/C=C(\C)CCC=C(C)C)c(O)c1 [CBG, cannabigerol]
- activity at CB2 (CB2; ref [52]): partial agonists
- NAPE-PLD protein expression (in words) (NAPE-PLD): significantly increased
- Protein Expression NAPE-PLD (NAPE-PLD): ↑++++
- IC50 (HaCaT cells; 6 h): 13.5 µM
- IC50 (HaCaT cells; 12 h): 13 µM
- IC50 (HaCaT cells; 24 h): 11.7 µM
- effectiveness in human TRPV1 (human TRPV1): high effectiveness
- activity of FAAH (FAAH): significantly increased
- TRPV1 channel stimulation (intracellular Ca2+ release triggered by capsaicin) (TRPV1): significantly increased

Compound: CCCCCc1cc(O)c(C/C=C(\C)CCC=C(C)C)c(O)c1C(=O)O [CBGA, cannabigerolic acid]
- activity at CB2 (CB2; ref [52]): partial agonists
- NAPE-PLD protein expression (in words) (NAPE-PLD): significantly increased
- Protein Expression NAPE-PLD (NAPE-PLD): NAPE-PLD ↑++++ FAAH ↑++++ DAGLα ↑++++ MAGL ↑++++
- relative toxicity on HaCaT cells (HaCaT cells): least toxic
- IC50 (HaCaT cells; 6 h): > 25 µM
- IC50 (HaCaT cells; 12 h): 24.5 µM
- IC50 (HaCaT cells; 24 h): > 25 µM
- activity of FAAH (FAAH): significantly increased
- TRPV1 channel stimulation (intracellular Ca2+ release triggered by capsaicin) (TRPV1): significantly increased

Compound: CCCc1cc(O)c2c(c1)OC(C)(C)[C@@H]1CCC(C)=C[C@@H]21 [THCV, Δ^9-tetrahydrocannabivarin]
- activity at CB2 (CB2; in vivo and in vitro, ref [53]): partial CB2 agonist
- NAPE-PLD protein expression (in words) (NAPE-PLD): significantly increased
- Protein Expression NAPE-PLD (NAPE-PLD): ↑++++
- relative toxicity on HaCaT cells (HaCaT cells): least toxic
- IC50 (HaCaT cells; 6 h): 14.3 µM
- IC50 (HaCaT cells; 12 h): 22.4 µM
- IC50 (HaCaT cells; 24 h): 18.6 µM
- effectiveness in human TRPV1 (human TRPV1): high effectiveness
- activity of FAAH (FAAH): significantly increased
- TRPV1 channel stimulation (intracellular Ca2+ release triggered by capsaicin) (TRPV1): significantly increased
